# Assay results reported in ChEMBL document CHEMBL4340569, “Optimization of a small-molecule Lipid II binder” (Bioorg Med Chem Lett, 2019).
# How the values were obtained:
# [1] = Half life in CD1 mouse at […], iv measured after 5 mins to 14 hrs by LC/MS/MS analysis; assay type: ADME, organism-based; conditions: in vivo; for half-life: CD1, mouse
# [2] = MRT in CD1 mouse at […], iv measured after 5 mins to 14 hrs by LC/MS/MS analysis; assay type: ADME, organism-based; conditions: in vivo
# [3] = Cmax in CD1 mouse at […], iv measured after 5 mins to 14 hrs by LC/MS/MS analysis; assay type: ADME, organism-based; design: dose 2.5 mg/kg, route intravenous; conditions: in vivo
# [4] = Toxicity in CD1 mouse assessed as induction of adverse clinical observations at […], iv measured after 5 mins to 14 hrs; assay type: organism-based; conditions: in vivo
# [5] = Dose normalized AUClast in CD1 mouse at […], iv measured after 5 mins to 14 hrs by LC/MS/MS analysis; assay type: ADME, organism-based; conditions: in vivo
# [6] = Volume of distribution at steady state in CD1 mouse at […], iv measured after 5 mins to 14 hrs by LC/MS/MS analysis; assay type: ADME, organism-based; conditions: in vivo; for Vd: CD1, mouse, read-out: Vdss
# [7] = AUC (infinity) in CD1 mouse at […], iv measured after 5 mins to 14 hrs by LC/MS/MS analysis; assay type: ADME, organism-based; design: dose 2.5 mg/kg, time infinity, route intravenous; conditions: in vivo
# [8] = Extrapolated AUC in CD1 mouse at […], iv measured after 5 mins to 14 hrs by LC/MS/MS analysis; assay type: ADME, organism-based; conditions: in vivo
# [9] = AUClast in CD1 mouse at […], iv measured after 5 mins to 14 hrs by LC/MS/MS analysis; assay type: ADME, organism-based; design: time upper 14 hr, dose 2.5 mg/kg, time lower 0.083 hr, route intravenous; conditions: in vivo
# Enterococcus faecium [10] = assay: Antimicrobial activity against Enterococcus faecium EF1509 by broth dilution method; assay type: functional
# Staphylococcus aureus [11] = assay: Antimicrobial activity against Staphylococcus aureus ATCC […] by broth dilution method; assay type: functional; conditions: ATCC 29213
# Enterococcus faecium [12] = assay: Antimicrobial activity against vancomycin-resistant Enterococcus faecium F118 by broth dilution method; assay type: functional
# [13] = Binding affinity to bacterial lipid 2 by surface plasmon resonance assay; design: species or system Bacteria
# Klebsiella pneumoniae [14] = assay: Antimicrobial activity against carbapenemase KPC producing Klebsiella pneumoniae NR-15410 by broth dilution method; assay type: functional
# Pseudomonas aeruginosa [15] = assay: Antimicrobial activity against Pseudomonas aeruginosa PAO1 by broth dilution method; assay type: functional
# [16] = Ratio of EC50 for human HeLa cells to MIC of Enterococcus faecium; assay type: toxicity
# Klebsiella pneumoniae [17] = assay: Antimicrobial activity against carbapenemase KPC producing Klebsiella pneumoniae NR-15411 by broth dilution method; assay type: functional
# Acinetobacter baumannii = assay: Antimicrobial activity against Acinetobacter baumannii ATCC 19606 by broth dilution method; assay type: functional; conditions: ATCC 19606 = CIP 70.34 = JCM 6841
# [18] = Antimicrobial activity against Enterobacter cloacae ATCC 13047 by broth dilution method; assay type: functional, Enterobacter cloacae subsp. cloacae
# Staphylococcus aureus [19] = assay: Antimicrobial activity against methicillin-resistant Staphylococcus aureus HFH-30123 by broth dilution method; assay type: functional
# [20] = Cytotoxicity against human HeLa cells incubated for 72 hrs; assay type: cell-based
# Pseudomonas aeruginosa [21] = assay: Antimicrobial activity against Pseudomonas aeruginosa X13273 by broth dilution method; assay type: functional
# Klebsiella aerogenes = assay: Antimicrobial activity against Klebsiella aerogenes ATCC 13048 by broth dilution method; assay type: functional
# Pseudomonas aeruginosa [22] = assay: Antimicrobial activity against Pseudomonas aeruginosa ATCC 27853 by broth dilution method; assay type: functional
# Enterococcus faecium [23] = assay: Antimicrobial activity against vancomycin-resistant Enterococcus faecium EF1509 by broth dilution method; assay type: functional
# Staphylococcus aureus [24] = assay: Antimicrobial activity against methicillin-resistant Staphylococcus aureus 1094 by broth dilution method; assay type: functional
structure (smiles),measurement,setting,value
CN1/C(=C/C=C/c2cc(-c3ccccc3)cc(-c3ccccc3)[o+]2)C(C)(C)c2ccccc21.F[B-](F)(F)F,half-life,[1],0.227 h
same,MRT,"[2]; CD1, mouse, read-out: MRT",0.226 h
same,Cmax,[3],101 ng/mL
same,Activity,[4],Non-Toxic
same,AUClast/dose,[5],26.9 ng·h/mL
same,Vd,[6],12.2 L/kg
same,AUC,[7],27.9 ng·h/mL
same,%AUCextra,[8],4.38%
same,AUC(0-t),[9],26.9 ng·h/mL
CCC(=O)N1CCN(c2ccc(/C=C/c3cc(-c4cccc(Br)c4)cc(-c4cccc(Br)c4)[o+]3)cc2)CC1,MIC,Enterococcus faecium [10],51.4 µM
same,MIC,Staphylococcus aureus [11],12.8 µM
CN(C)c1ccc(/C=C/c2ccc(/C=C/c3cc(-c4ccc(Br)cc4)cc(-c4ccc(Br)cc4)[o+]3)cc2)cc1,MIC,Enterococcus faecium [10],> 80 µM
same,MIC,Staphylococcus aureus [11],> 80 µM
CC(=O)N1CCN(c2ccc(/C=C/c3cc(-c4ccc(F)cc4)cc(-c4ccc(F)cc4)[o+]3)cc2)CC1,MIC,Enterococcus faecium [10],> 80 µM
same,MIC,Staphylococcus aureus [11],> 80 µM
CN1/C(=C/C=C/c2cc(-c3ccc(Br)cc3)cc(-c3ccc(Br)cc3)[o+]2)C(C)(C)c2cc(Cl)ccc21,MIC,Enterococcus faecium [10],22.5 µM
same,MIC,Staphylococcus aureus [11],45.1 µM
CN(/C=C/c1cc(-c2cccc(Br)c2)cc(-c2cccc(Br)c2)[o+]1)CCO,MIC,Enterococcus faecium [10],> 80 µM
same,MIC,Staphylococcus aureus [11],> 80 µM
O=C(c1ccccc1)N1CCN(c2ccc(/C=C/c3cc(-c4ccc(F)cc4)cc(-c4ccc(F)cc4)[o+]3)cc2)CC1,MIC,Enterococcus faecium [10],57 µM
same,MIC,Staphylococcus aureus [11],28.5 µM
CN(C)c1ccc(/C=C/c2cc(-c3ccc(Br)cc3)cc(-c3ccc(Br)cc3)[o+]2)cc1.F[B-](F)(F)F,t1/2,[1]; mouse,13.3 h
same,MIC,Enterococcus faecium [12],5.65 µM
same,Kd,[13],150 nM
same,MIC,Klebsiella pneumoniae [14],≥ 80 µM
same,MRT,[2]; mouse,7.29 h
same,MIC,Enterococcus faecium [10],46.8 to 80 µM
same,MIC,Pseudomonas aeruginosa [15],≥ 80 µM
same,selectivity ratio,[16],≥ 80
same,MIC,Klebsiella pneumoniae [17],≥ 80 µM
same,Activity,[4],Non-Toxic
same,MIC,Acinetobacter baumannii,≥ 80 µM
same,MIC,[18],≥ 80 µM
same,MIC,Staphylococcus aureus [19],32 µM
same,CC50 at 72 h,[20],≥ 80 µg/mL
same,MIC,Pseudomonas aeruginosa [21],≥ 80 µM
same,AUClast/dose,[5],536 ng·h/mL
same,MIC,Klebsiella aerogenes,≥ 80 µM
same,Vdss,[6]; mouse,22.8 L/kg
same,MIC,Pseudomonas aeruginosa [22],≥ 80 µM
same,MIC,Enterococcus faecium [23],2.82 µM
same,MIC,Staphylococcus aureus [11],23.4 to 80 µM
same,MIC,Staphylococcus aureus [24],32 µM
same,%AUCextra,[8],24.3%
OCCN(CCO)c1ccc(/C=C/c2cc(-c3ccc(Br)cc3)cc(-c3ccc(Br)cc3)[o+]2)cc1,MIC,Enterococcus faecium [10],> 80 µM
same,MIC,Staphylococcus aureus [11],> 80 µM
CC(C)(C)OC(=O)N1CCN(c2ccc(/C=C/c3cc(-c4ccc(F)cc4)cc(-c4ccc(F)cc4)[o+]3)cc2)CC1,MIC,Enterococcus faecium [10],> 80 µM
same,MIC,Staphylococcus aureus [11],> 80 µM
Brc1ccc(-c2cc(/C=C/c3ccc(N4CCOCC4)cc3)[o+]c(-c3ccc(Br)cc3)c2)cc1,MIC,Enterococcus faecium [10],> 80 µM
same,MIC,Staphylococcus aureus [11],> 80 µM
CN(CCO)c1ccc(/C=C/c2cc(-c3ccc(Br)cc3)cc(-c3ccc(Br)cc3)[o+]2)cc1,MIC,Enterococcus faecium [10],> 80 µM
same,MIC,Staphylococcus aureus [11],> 80 µM
CCN(CC)c1ccc(/C=C/c2cc(-c3ccc(Br)cc3)cc(-c3ccc(Br)cc3)[o+]2)cc1,MIC,Enterococcus faecium [10],> 80 µM
same,MIC,Staphylococcus aureus [11],> 80 µM
OCCN(CCO)c1ccc(/C=C/c2cc(-c3cccc(F)c3)cc(-c3cccc(F)c3)[o+]2)cc1,MIC,Enterococcus faecium [12],12.5 µM
same,Kd,[13],310 nM
same,MIC,Klebsiella pneumoniae [14],≥ 80 µM
same,MIC,Enterococcus faecium [10],3.9 µM
same,MIC,Pseudomonas aeruginosa [15],≥ 80 µM
same,selectivity ratio,[16],49.3
same,MIC,Klebsiella pneumoniae [17],≥ 80 µM
same,MIC,Acinetobacter baumannii,≥ 80 µM
same,MIC,[18],≥ 80 µM
same,MIC,Staphylococcus aureus [19],12.5 µM
same,CC50 at 72 h,[20],≥ 80 µg/mL
same,MIC,Pseudomonas aeruginosa [21],≥ 80 µM
same,MIC,Klebsiella aerogenes,≥ 80 µM
same,MIC,Pseudomonas aeruginosa [22],≥ 80 µM
same,MIC,Enterococcus faecium [23],3.13 µM
same,MIC,Staphylococcus aureus [11],2.1 µM
same,MIC,Staphylococcus aureus [24],12.5 µM
Fc1ccc(-c2cc(/C=C/N3CCNCC3)[o+]c(-c3ccc(F)cc3)c2)cc1,MIC,Enterococcus faecium [12],8.84 µM
same,Kd,[13],6200 nM
same,MIC,Klebsiella pneumoniae [14],≥ 80 µM
same,MIC,Enterococcus faecium [10],1.9 µM
same,MIC,Pseudomonas aeruginosa [15],≥ 80 µM
same,selectivity ratio,[16],62.6
same,MIC,Klebsiella pneumoniae [17],≥ 80 µM
same,MIC,Acinetobacter baumannii,≥ 80 µM
same,MIC,[18],≥ 80 µM
same,MIC,Staphylococcus aureus [19],6.25 µM
same,CC50 at 72 h,[20],≥ 80 µg/mL
same,MIC,Pseudomonas aeruginosa [21],≥ 80 µM
same,MIC,Klebsiella aerogenes,≥ 80 µM
same,MIC,Pseudomonas aeruginosa [22],≥ 80 µM
same,MIC,Enterococcus faecium [23],3.13 µM
same,MIC,Staphylococcus aureus [11],3.8 µM
same,MIC,Staphylococcus aureus [24],6.25 µM
ClCCN(CCCl)c1ccc(/C=C/c2cc(-c3ccc(Br)cc3)cc(-c3ccc(Br)cc3)[o+]2)cc1,MIC,Enterococcus faecium [10],> 80 µM
same,MIC,Staphylococcus aureus [11],> 80 µM
Brc1ccc(-c2cc(/C=C/c3ccc(N4CCCCC4)cc3)[o+]c(-c3ccc(Br)cc3)c2)cc1,MIC,Enterococcus faecium [10],> 80 µM
same,MIC,Staphylococcus aureus [11],> 80 µM
CN(C)c1ccc(/C=C/c2cc(-c3ccc(F)cc3)cc(-c3ccc(F)cc3)[o+]2)cc1.F[B-](F)(F)F,half-life,[1],6.81 h
same,MIC,Enterococcus faecium [12],6.25 µM
same,Kd,[13],340 nM
same,MIC,Klebsiella pneumoniae [14],≥ 80 µM
same,MRT,"[2]; CD1, mouse, read-out: MRT",1.74 h
same,Cmax,[3],3220 ng/mL
same,MIC,Enterococcus faecium [10],2 µM
same,MIC,Pseudomonas aeruginosa [15],≥ 80 µM
same,selectivity ratio,[16],≥ 80
same,MIC,Klebsiella pneumoniae [17],≥ 80 µM
same,Activity,[4],Non-Toxic
same,MIC,Acinetobacter baumannii,≥ 80 µM
same,MIC,[18],≥ 80 µM
same,MIC,Staphylococcus aureus [19],6.25 µM
same,CC50 at 72 h,[20],≥ 80 µg/mL
same,MIC,Pseudomonas aeruginosa [21],≥ 80 µM
same,AUClast/dose,[5],56.5 ng·h/mL
same,MIC,Klebsiella aerogenes,≥ 80 µM
same,Vd,[6],46.3 L/kg
same,MIC,Pseudomonas aeruginosa [22],≥ 80 µM
same,AUC,[7],578 ng·h/mL
same,MIC,Enterococcus faecium [23],1.56 µM
same,MIC,Staphylococcus aureus [11],3.9 µM
same,MIC,Staphylococcus aureus [24],4.42 µM
same,%AUCextra,[8],2.25%
same,AUC(0-t),[9],565 ng·h/mL
ClCCN(/C=C/c1cc(-c2cccc(Br)c2)cc(-c2cccc(Br)c2)[o+]1)CCCl,MIC,Enterococcus faecium [10],49.3 µM
same,MIC,Staphylococcus aureus [11],49.3 µM
CN1/C(=C/c2ccc(/C=C/c3cc(-c4ccc(Br)cc4)cc(-c4ccc(Br)cc4)[o+]3)cc2)C(C)(C)c2ccccc21,MIC,Enterococcus faecium [10],12.2 µM
same,MIC,Staphylococcus aureus [11],24.5 µM
